Source: patent publication US10757944B2, “Ozone treatment for elimination of pathogens” (priority 2016, dated 2020)
“And” between values parts separate entries of the source, which are not always exact repeats. Identical values can stand only once.

Columns and labels:
Format in all cases: cell-based
total yeast and mold = experiment: Total yeast and mold on homogenized cannabis flower after ozone exposure (3M Petrifilm Rapid Yeast and Mold Count Plate); conditions: for Average CFU/g (all samples tested) of yeast and mold remaining: 0 minutes: 68,000
Protocol: The ability of ozone to reduce fungus using an embodiment of a disclosed pathogen reduction device was also evaluated. In this series of experiments, homogenized cannabis flower with a total yeast and mold bio-burden exceeding 10,000 CFU/g was exposed to ozone using an embodiment of a disclosed pathogen reduction device. 20 gram samples of the cannabis flower were separated into two groups (10 grams a group) and placed on different racks within the pathogen reduction device. One 10 gram sample was placed on an industrial grade aluminum rack with air holes in order to maximize ozone flow and increase the surface area of the flower that would be exposed to ozone. A second 10 gram sample was place directly onto a rack screen (aluminum foil with holes pocked into it); however, because some of the homogenized cannabis flower was finer than the rack screen, some flower from the second 10 gram sample passed through the rack screen and landed on the lowest mesh screen in the device, thereby, creating a third sample for testing.
20 gram samples as described above were exposed to ozone for 0 minutes (control), 20 minutes, 30 minutes, 45 minutes, and 60 minutes at an ozone concentration of 200 ppm. Six 1 gram samples from each treatment time were processed and evaluated using a 3M® Petrifilm® Rapid Yeast and Mold Count Plate and accompanying Product Instructions. The ozone treated samples were homogenized, diluted with buffer (distilled water), and then 1 milliliter suspension samples were dispensed onto 3M® Petrifilm® Rapid Yeast and Mold Count Plates. The plates were incubated at 27° C. for greater than 60 hours in order to quantify the total yeast and mold remaining on the cannabis flower following exposure to ozone. Three of the six 1 gram samples were taken from the flower placed on the industrial grade aluminum rack as detailed above. Two of the 1 gram samples were taken from the flower placed directly on the screen. The final 1 gram sample was collected from the lowest mesh screen in the device where the finest flower collected after falling through the rack screen.

Listeria monocytogenes = experiment: Gaseous ozone treatment of Cannabis inoculated with Listeria, microbial count; conditions: for kill of bacterial pathogen (in words): 20 minutes
Protocol: (§1) Cannabis plants were individually contaminated with Escherichia Coli, Salmonella enterica sv typhimurium, Listeria monocytogenes and Candida albicans then exposed to gaseous ozone for 20 minutes at 100 ppm and 200 ppm.
(§2) Pure cultures of Escherichia coli and Listeria monocytogenes provided by the American Type Culture Collection (ATCC) were grown in selective media broths. The Candida albicans provided by ATCC was grown on potato dextrose agar, and after significant growth was achieved, the colonies were transferred and suspended in Butterfield's buffer. After significant turbidity in each broth of pathogens was observed, they, along with Butterfield's buffer with the suspended Candida albicans, were used to inoculate individual Cannabis samples. This process created four individual populations of Cannabis with each population being contaminated with one of the four organisms grown. After inoculating the samples they were allowed to dry overnight by placing them out in the open at room temperature. Each population of Cannabis was then divided into smaller individual 2-4 gram samples which were used in the tests. One test consisted of placing nearly half of the smaller samples into an ozone gas chamber for 20 minutes at an approximate ozone concentration of 100 ppm. The remaining samples were set aside to be used as controls.
(§3) Three samples for each organism were tested at each of the concentrations. The control samples were placed into the same chamber for 20 minutes with an ozone concentration of 0 ppm. All samples were then analyzed for their microbial counts by first generating serial dilution using Butterfield's buffer as the diluent for each sample then individually plating the resultant dilutions onto selective media appropriate for the organism being analyzed. After the required incubation temperatures and times were completed, the organisms on the plates were counted. For each set of dilutions of a given sample and starting at the plate representing the lowest dilution ratio, the first plate that was countable was counted and the result was recorded.
(§4) Testing occurred over two days. The first day involved testing one sample of Cannabis for each organism at an ozone concentration of 100 ppm and another test of only Listeria at 50 ppm. Additional testing involving subsequent trials for each organism at ozone concentrations of 100 ppm and 200 ppm were conducted on the second day of testing.
(§5) The ozone concentration in the ozone chamber was kept at a range approximating the desired 100 ppm and 200 ppm concentrations. For instance, when the desired concentration was 100 ppm, the actual range of concentrations was 98 ppm to 106 ppm, and when the desired concentration was 200 ppm, the actual range of concentration was 198 ppm to 204 ppm. While the samples were being placed into the chamber ozone gas was lost.

Escherichia Coli = experiment: Gaseous ozone treatment of Cannabis inoculated with E. Coli, microbial count
Protocol: as §1
Pure cultures of Escherichia coli and Listeria monocytogenes provided by the American Type Culture Collection (ATCC) were grown in selective media broths. The Candida albicans provided by ATCC was grown on potato dextrose agar, and after significant growth was achieved, the colonies were transferred and suspended in Butterfield's buffer. After significant turbidity in each broth of pathogens was observed, they, along with Butterfield's buffer with the suspended Candida albicans, were used to inoculate individual Cannabis samples. […]
as §3, with “The control samples were placed into the same chamber for 20 minutes with an ozone concentration of 0 ppm.” left out, “recorded. […]” for “recorded.”

CFUs on cannabis flower = experiment: Exposure of cannabis flower to 200 ppm ozone, CFU reduction; conditions: between about 20 minutes and 90 minutes
Candida albicans = experiment: Gaseous ozone treatment of Cannabis inoculated with Candida, microbial count; conditions: for Microbial Count: 20 min
Protocol: as §1, §2, §3, §4
as §5, with “While the samples were being placed into the chamber ozone gas was lost.” left out

[1] = system: Salmonella enterica sv typhimurium; experiment: Gaseous ozone treatment of Cannabis inoculated with Salmonella, microbial count; conditions: for kill of bacterial pathogen (in words): 20 minutes; for Microbial Count: 20 min
Protocol: as §1, §2, §3, §4
as §5, with “While the samples were being placed into the chamber ozone gas was lost.” left out

[2] = system: Escherichia Coli, Salmonella enterica sv typhimurium, Listeria monocytogenes and Candida albicans; experiment: Gaseous ozone treatment of inoculated Cannabis, summary statements for all organisms
Protocol: as §1, §2
as §3, with “recorded. […]” for “recorded.”

[3] = 100 ppm ozone, compared with 200 ppm

With `O=[O+][O-]` [ozone] the “decrease in total yeast and mold bio-burden” value (total yeast and mold; 200 ppm ozone for 60 minutes) was 92%, the “average Colony Forming Units/gram after treatment” value (total yeast and mold; 200 ppm ozone for 60 minutes, dropping from an average of 82,000 CFU/g) was 7,000 CFR/g and the “Average CFU/g (all samples tested) of yeast and mold remaining” value (shortened to “Average CFU/g … of yeast and mold remaining”) (total yeast and mold; 200 ppm ozone, 20 minutes) was 18,000 CFU/g. For the same compound, the “CFU/g (Test 1)” value (total yeast and mold; 200 ppm ozone, 20 minutes, Industrial grade aluminum rack (samples 4-6), T0: 25,000, 60,000, 82,000) was 19,000 CFU/g and 12,000 CFU/g and 21,000 CFU/g, the “CFU/g (Test 2)” value (total yeast and mold; 200 ppm ozone, 20 minutes, Industrial grade aluminum rack (samples 4-6), T0: 53,000, 140,000, 130,000) was 23,000 CFU/g and 18,000 CFU/g and 21,000 CFU/g and the “CFU/g (Test 2)” value (total yeast and mold; 200 ppm ozone, 20 minutes, Lowest mesh screen (sample 1), T0: 61,000) was 24,000 CFU/g. For the same compound, the “CFU/g (Test 1)” value (total yeast and mold; 200 ppm ozone, 20 minutes, Lowest mesh screen (sample 1), T0: 77,000) was 18,000 CFU/g, the “CFU/g (Test 2)” value (total yeast and mold; 200 ppm ozone, 20 minutes, Rack screen (samples 2-3), T0: 28,000, 77,000) was 16,000 CFU/g and 17,000 CFU/g and the “CFU/g (Test 1)” value (total yeast and mold; 200 ppm ozone, 20 minutes, Rack screen (samples 2-3), T0: 30,000, 50,000) was 15,000 CFU/g. The “Average CFU/g … of yeast and mold remaining” value (total yeast and mold; 200 ppm ozone, 30 minutes) was 17,000 CFU/g, the “CFU/g (Test 1)” value (total yeast and mold; 200 ppm ozone, 30 minutes, Industrial grade aluminum rack (samples 4-6), T0: 25,000, 60,000, 82,000) was 16,000 CFU/g and 11,000 CFU/g and 20,000 CFU/g and the “CFU/g (Test 2)” value (total yeast and mold; 200 ppm ozone, 30 minutes, Industrial grade aluminum rack (samples 4-6), T0: 53,000, 140,000, 130,000) was 15,000 CFU/g and 14,000 CFU/g and 20,000 CFU/g. For the same compound, the “CFU/g (Test 2)” value (total yeast and mold; 200 ppm ozone, 30 minutes, Lowest mesh screen (sample 1), T0: 61,000) was 20,000 CFU/g, the “CFU/g (Test 1)” value (total yeast and mold; 200 ppm ozone, 30 minutes, Lowest mesh screen (sample 1), T0: 77,000) was 16,000 CFU/g and the “CFU/g (Test 2)” value (total yeast and mold; 200 ppm ozone, 30 minutes, Rack screen (samples 2-3), T0: 28,000, 77,000) was 30,000 CFU/g and 16,000 CFU/g. The “CFU/g (Test 1)” value (total yeast and mold; 200 ppm ozone, 30 minutes, Rack screen (samples 2-3), T0: 30,000, 50,000) was 18,000 CFU/g and 13,000 CFU/g, the “Average CFU/g … of yeast and mold remaining” value (total yeast and mold; 200 ppm ozone, 45 minutes) was 16,000 CFU/g and the “CFU/g (Test 2)” value (total yeast and mold; 200 ppm ozone, 45 minutes, Lowest mesh screen (sample 1), T0: 61,000) was 11,000 CFU/g. For the same compound, the “CFU/g (Test 1)” value (total yeast and mold; 200 ppm ozone, 45 minutes, Lowest mesh screen (sample 1), T0: 77,000) was 7,100 CFU/g, the “CFU/g (Test 2)” value (total yeast and mold; 200 ppm ozone, 45 minutes, Rack screen (samples 2-3), T0: 28,000, 77,000) was 15,000 CFU/g and 12,000 CFU/g and the “CFU/g (Test 1)” value (total yeast and mold; 200 ppm ozone, 45 minutes, Rack screen (samples 2-3), T0: 30,000, 50,000) was 13,000 CFU/g and 11,000 CFU/g. For the same compound, the “Average CFU/g … of yeast and mold remaining” value (total yeast and mold; 200 ppm ozone, 60 minutes) was 6,000 CFU/g, the “CFU/g (Test 2)” value (total yeast and mold; 200 ppm ozone, 60 minutes, Lowest mesh screen (sample 1), T0: 61,000) was 9,000 CFU/g and the “CFU/g (Test 1)” value (total yeast and mold; 200 ppm ozone, 60 minutes, Lowest mesh screen (sample 1), T0: 77,000) was 7,400 CFU/g. For the same compound, the “CFU/g (Test 2)” value (total yeast and mold; 200 ppm ozone, 60 minutes, Rack screen (samples 2-3), T0: 28,000, 77,000) was 10,000 CFU/g and 6,300 CFU/g, the “CFU/g (Test 1)” value (total yeast and mold; 200 ppm ozone, 60 minutes, Rack screen (samples 2-3), T0: 30,000, 50,000) was 6,000 CFU/g and 7,800 CFU/g and the “additional reduction in CFU/g” value (total yeast and mold; 200 ppm ozone, after the first 20 minutes and up until 45 minutes) was 1.1%. For the same compound, the “another reduction in CFU/g” value (total yeast and mold; 200 ppm ozone, between a 45 minute and 60 minute exposure) was 14.1%, the “yeast and mold across all 6 samples following treatment” value (total yeast and mold; 200 ppm ozone, from roughly 10^5 CFU/g) was “below 10,000 CFU/g” and the “inhibition of fungi by ozone exposure (in words)” value (total yeast and mold; Table 4, 200 ppm ozone, 20-60 minutes) was “strongly inhibited”. The “difference between the control and the treated sample (in words)” value (Listeria monocytogenes; 50 ppm ozone, 20 min, first day) was “no statistically significant difference”, the “kill of bacterial pathogen (in words)” value (Listeria monocytogenes; [3]) was “lesser kill rate” and the “kill of bacterial pathogen (in words)” value (Listeria monocytogenes; 200 ppm ozone) was “Significant kills”. For the same compound, the “Microbial Count” value (Listeria monocytogenes; first day, target ozone 50 ppm (actual 46-52 ppm), 20 min, control (0 ppm) 7.0 * 10^2) was 2.6 * 10^2 cfu/g, the “Microbial Count” value (Listeria monocytogenes; first day, target ozone 100 ppm (actual 95-102 ppm), 20 min, control (0 ppm) 1.9 * 10^7) was 4.8 * 10^5 cfu/g and the “Microbial Count” value (Listeria monocytogenes; second day, ozone 100 ppm (98-106 ppm), 20 min, Trials 2-3, control 2.0 * 10^4) was 2.0 * 10^3 cfu/g and 1.0 * 10^3 cfu/g. For the same compound, the “kill of Escherichia coli (in words)” value (Escherichia Coli; both 100 ppm and 200 ppm ozone, 20 minutes) was “significantly vulnerable”, the “Microbial Count” value (Escherichia Coli; first day, target ozone 100 ppm (actual 95-102 ppm), 20 min, control (0 ppm) 1.2 * 10^11) was 2.8 * 10^10 cfu/g and the “reduction of CFUs” value (CFUs on cannabis flower) was 100,000 to 150,000 CFUs per hour. The “effect of ozone treatment on Candida albicans (in words)” value (Candida albicans; 100 ppm and 200 ppm ozone, 20 minutes) was “limited”, the “microbial count of 200 ppm trials compared with the control group (in words)” value (Candida albicans; 200 ppm ozone, 20 minutes, FIG. 10) was “average reduced microbial count” and the “Microbial Count” value (Candida albicans; listed as 'Mold Treated', first day, target ozone 100 ppm (actual 95-102 ppm), Mold Control (0 ppm) 1.4 * 10^12) was 1.9 * 10^11 cfu/g. For the same compound, the “Microbial Count” value (Candida albicans; second day, ozone 100 ppm (98-106 ppm), Trials 2-3, control 5.0 * 10^5) was 2.7 * 10^5 cfu/g and 1.5 * 10^4 cfu/g, the “kill of bacterial pathogen (in words)” value [1, 3] was “lesser kill rate” and the “kill of bacterial pathogen (in words)” value ([1]; 200 ppm ozone) was “Significant kills”. The “Microbial Count” value ([1]; first day, target ozone 100 ppm (actual 95-102 ppm), control (0 ppm) 1.1 * 10^11) was 1.7 * 10^10 cfu/g, the “Microbial Count” value ([1]; second day, ozone 100 ppm (98-106 ppm), Trials 2-3, control 4.5 * 10^4) was 1.1 * 10^4 cfu/g and 1.3 * 10^4 cfu/g and the “kill of all of the organisms involved in the test (in words)” value ([2]; 100 ppm ozone, first day (Table 1)) was “significant kill”. For the same compound, the “kill of all organisms compared to the controls (in words)” value ([2]; 100 ppm ozone, second day (Table 2)) was “significant kill” and the “kills at 200 ppm compared to the kills at 100 ppm (in words)” value ([2]; 200 ppm ozone, second day (Table 2)) was “amount of kills increased”.
